Test results: patent publication US6407064B2, “Aminoalcohol derivative and medicament comprising the same” (Seikagaku Corporation, priority 1999, dated 2002)

Assays:
[1] = test system: GSLs which are produced starting with glucosylceramide; details: J. Lipid Res. 28: 565-571 (1987); cited from earlier work
neurite = details: literature; cited from earlier work
[2] = target: T1, enzyme for glucosylceramide biosynthesis (Homo sapiens, UniProt Q16739); details: J. Lipid Res. 28: 565-571 (1987); cited from earlier work
T1 sequence (Q16739 1-394): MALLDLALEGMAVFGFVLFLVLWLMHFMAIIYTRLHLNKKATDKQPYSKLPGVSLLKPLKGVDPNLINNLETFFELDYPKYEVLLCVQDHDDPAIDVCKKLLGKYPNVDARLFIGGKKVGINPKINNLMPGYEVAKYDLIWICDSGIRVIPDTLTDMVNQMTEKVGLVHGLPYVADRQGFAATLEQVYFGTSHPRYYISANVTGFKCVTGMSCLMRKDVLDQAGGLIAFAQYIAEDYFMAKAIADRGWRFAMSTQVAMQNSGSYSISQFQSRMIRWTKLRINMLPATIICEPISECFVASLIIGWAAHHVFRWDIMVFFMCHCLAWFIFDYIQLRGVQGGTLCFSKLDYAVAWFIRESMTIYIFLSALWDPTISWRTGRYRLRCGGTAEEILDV

synaptic function = details: Biochem. Biophys. Res. Commun. 222: 494-498 (1996); cited from earlier work
[3] = test system: cultured neurocytes of rat fetal cerebral cortex; experiment: Activity of accelerating synapse formation (intracellular calcium ion level, fura-2); type: cell-based; details: relative value, L-PDMP regarded as 100; compound 20 μM; assay on 10th day of culture
Protocol: The activity of accelerating synapse formation was determined by measuring change of an intracellular calcium ion level resulted from the synchronized spontaneous ignition of neurocytes which is considered to show synapse activities by means of an intracellular calcium ion multipoint observation system using a calcium ion fluorescence indicator, fura-2.
Concretely, rat fetuses at the 18th day of pregnancy were taken out from Wistar rats (available from Japan SLC), and cerebral cortices of the fetuses were taken out and cut into small pieces. After having been treated with papain (manufactured by Worthington Biochemical) at 37° C. for 30 minutes, the pieces were suspended into a Dulbecco modified Eagle's medium containing 5% bovine neonatal serum and 5% equine serum and the cortices were dissociated into single cells with Cell Striner (70 μm, Falcon). Then, the cells were inoculated into a flexiperm plate coated with 0.5% polyethyleneimine (1.0×10^6 cells/500 μl/well), and was cultured in 7% CO2 incubator at 37° C. The medium was exchanged on 2nd, 5th, and 8th days after the culture had been started. The activity of the compound of the present invention was measured using the primary culture. The compound was added at the time when the medium was exchanged and the concentration of the compound was maintained to be 20 μM. Assay was carried out on 10th day after the culture had been started.
(2) Measurement of Activity of Accelerating Synapse Formation
Concretely, after the medium of each well where cells were cultured was substituted with basic salt solution (BSS), 3 μl of a DMSO solution (1 mg/ml) of a calcium ion fluorescence indicator fura-2 was added, and the whole was kept at 37° C. for 1 hour.

[4] = test system: enzyme for ganglioside GM3 synthesis, mouse B16 melanoma cell; experiment: Activity of enzyme for ganglioside GM3 synthesis (14C-Gal incorporated in total lipid fraction); type: cell-based; details: relative value, control regarded as 100; test compound 24 μM, 24 hours; 14C-Gal incorporation
Protocol: The gangliosides produced by mouse B16 melanoma cell are almost composed of ganglioside GM3. Therefore, the activity of the enzyme for ganglioside GM3 synthesis can be determined conveniently by measuring the amount of ^14C-Gal incorporated in a total lipid-extracted fraction through a liquid layer partition method.
(§1) A liquid where the cells of mouse B16 melanoma were suspended was prepared with Dulbecco modified Eagle's medium containing 10% bovine fetal serum, inoculated into a 12-well plate in an amount of 2.0×10^5 cells/ml/well, and cultured in 5% CO2 incubator at 37° C. The treatment with a test compound (24 μM) and the addition of ^14C-Gal (22.2 kBq/11.7 nmol/6 μl/well) were started through the exchange of total amount of the medium 24 hours after the culture was started. Twenty-four hours after the treatment with the test compound was started, the culture mixture was treated with PBS containing 0.02% EDTA and PBS containing 0.25% trypsin successively to recover the cells.
Then, a mixed solvent of chloroform:methanol=2:1 (3 ml) was added to the cell pellet and, after the subjection to an ultrasonication for 30 minutes, the supernatant was recovered. Furthermore, a mixed solvent of chloroform:methanol=1:1 (3 ml) was added to the residual pellet after the recovery of the supernatant, and a similar operation was carried out. The resulting supernatant was combined with the first supernatant and the whole was evaporated to dryness under a nitrogen stream. A desalinated water (1.0 ml) was added to the total lipid-extracted fraction. After having been subjected to an ultrasonication for 1 minute, the mixture was transferred into a dialysis tube and dialyzed against water for 2 days. The sample after the dialysis was transferred into a vial for liquid scintillation counter and, after the addition of scintillator, the activity of incorporating ^14C-Gal was measured on scintillation counter.
The values of activity of the compounds of the present invention are shown as relative values obtained by calculation on the basis that the value of a control (a group where no test compound was added) is regarded as 100 in Table 3 below.

[5] = test system: ganglioside GM3, mouse B16 melanoma cells; experiment: Synthesized amount of ganglioside GM3 (HPTLC densitometry); type: cell-based; details: relative value, control regarded as 100, test compound 25 μM, 24 hours
Protocol: as §1, with “culture flask (175 cm^2)” for “12-well plate”, “0.8×10^7 cells/20 ml,” for “2.0×10^5 cells/ml/well,”, “(25” for “(24”, “was” for “and the addition of ^14C-Gal (22.2 kBq/11.7 nmol/6 μl/well) were”, “three fourths” for “total amount”
Then, a mixed solvent of chloroform:methanol=2:1 (4 ml) was added to the cell pellet and, after the subjection to an ultrasonication for 30 minutes, the cell pellet solution was allowed to stand at room temperature for a night and the supernatant was recovered. Furthermore, a mixed solvent of chloroform:methanol=1:1 (4 ml) was added to the residual pellet after the recovery of the supernatant, and a similar operation was carried out. The resulting supernatant was combined with the first supernatant and the whole was evaporated to dryness under a nitrogen stream. To the total lipid fraction was added a 0.1 N methanolic sodium hydroxide solution (2.0 ml) and the mixture was allowed to stand at 40° C. for 2 hours. Thereafter, 1 N hydrochloric acid (0.2 ml) was added thereto and the mixture was allowed to stand for 1.5 hours.
Then, the mixture was washed with n-hexane (2 ml×2) and, after the lower layer thus washed was evaporated to dryness under a nitrogen stream, the residue was desalinated by gel filtration chromatography (Sephadex LH-20 (manufactured by Amersham Pharmacia Biotech), diameter of 10 mm, height of 120 mm) using chloroform:methanol=2:1 as the eluting solvent. […] After orcinol-sulfuric acid reagent had been sprayed on the plate, it was heated at 110° C. for 5 minutes and colored spot of ganglioside GM3 was quantitatively determined by means of densitometer (a measuring wavelength of 505 nm). […]

Row | Compound | intracellular content of GSLs [1] | effect on neurite extension (neurite) | effect on enzyme for glucosylceramide biosynthesis [2] | effect on synaptic function (synaptic function) | Activity of synapse formation [3] | Activity of accelerating glycolipid biosynthesis (Test Example 2) [4] | Glycolipid content (Test Example 3) [5]
1 | CCCCCCCCCC(=O)N[C@H](CN1CCOCC1)[C@H](O)c1ccccc1 [D-threo-PDMP, D-threo-1-phenyl-2-decanoylamino-3-morpholino-1-propanol] | remarkably reduces intracellular content of all GSLs | suppresses the extension of neurite | specifically inhibits | suppresses synaptic function | – | – | –
2 | CCCCOC(=O)CCC(=O)N[C@@H](CN1CCOCC1)[C@@H](O)c1ccccc1 [Example 5, (1S,2S)-2-(n-butoxy)butanedioylamino-3-morpholino-1-phenyl-1-propanol] | – | – | – | – | 92.5 | 122.3 | 131.2
3 | O=C(O)CCCCCCCCC(=O)N[C@@H](CN1CCOCC1)[C@@H](O)c1ccccc1 [Example 25, (1S,2S)-2-(9-carboxynonanoyl)amino-3-morpholino-1-phenyl-1-propanol] | – | – | – | – | – | 89.2 | 114.5
